The results in this text go back to patent US20210093619A1, “Chemical Compounds as ATF-4 Pathway Inhibitors” (GlaxoSmithKline Intellectual Property Development Limited, priority 2017, published 2021).

The structures appear in SMILES notation.

This assay relates to ATF4 pathway. Description: ATF4 Cell Based Assay (SH-SY5Y-ATF4-NanoLuc reporter, Thapsigargin challenge). Conditions: SH-SY5Y-ATF4-NanoLuc cells, Thapsigargin 14-18 hours; average of a set of two or more experimental runs; read-out: average ATF4 pathway inhibitory activity (IC50). From the text:
The ATF4 reporter assay measures the effect of Thapsigargin induced cellular stress on ATF4 expression. For this reporter assay, a stable cell line was created by transfecting SH-SY5Y cells with a plasmid containing the NanoLuc® luciferase gene fused to the 5′-UTR of ATF4, under the control of the CMV promoter. The ATF4 5′-UTR contains two open reading frames which mediate the cellular stress-dependent translation of the reporter gene. Clones stably expressing the reporter construct were isolated and selected based on the luminescence response to thapsigargin and inhibition of this signal by test compounds. Briefly, SH-SY5Y-ATF4-NanoLuc cells were challenged with Thapsigargin for 14-18 hours to determine the stress effect with or without test compounds.
Cells were propagated in growth media consisting of 90% DMEM F12 (InVitrogen #11320-033), 10% Fetal Bovine Serum (Gibco #10438-026), 5mM Glutamax (Gibco #35050-061), 5 mM Hepes, (Gibco #15630-080), and 0.5 mg/ml Geneticin (Gibco #10131-027). Cells were prepared for the assay by removing all media from cells, washing the plated cells with phosphate buffered saline, and detached by adding a solution comprised of 10% Tryple express solution (InVitrogen12604-021) and 90% enzyme-free cell dissociation buffer HANKS base (Gibco 13150-016). The trypsin was deactivated by adding assay media comprised of 90% phenol-red free DMEM F12 (InVitrogen, 11039), 10% Fetal Bovine Serum (Gibco #10438-026),(5 mM Glutamax (Gibco #35050-061), 5 mM Hepes, (Gibco #15630-080), and 0.5 mg/ml Geneticin (Gibco #10131-027). Suspended cells were spun down at 300 g for 5 min, the supernatant was removed and the cell pellet was suspended in warm media (30-37° C.) comprised as above but without 10% Fetal Bovine Serum to a concentration of 1 e6 cells/ml.
Assay plates were prepared by adding 250 nL of compound stock solution in 100% DMSO to each well, followed by dispensing 20 microliters/well cell suspension to deliver 15-20 k cell/well. Cells were incubated for 1 hour at 37° C. Then, 5 μL of 1.5 μM or 1 μM of Thapsigargin (final concentration: 200-300 nM) was added to each well of cells. Assay plates containing cells were incubated for 14-18 hours at 37° C.
The measurement of luciferase produced by the ATF4 constructs was measured as follows. Aliquots of the Nano-Glo reagent (Nano-Glo® Luciferase Assay Substrate, Promega, N113, Nano-Glo® Luciferase Assay Buffer, Promega, N112 (parts of Nano-Glo® Luciferase Assay System, N1150) were brought to room temperature, the substrate and buffer were mixed according to manufacturer's instructions. The cell plates were equilibrated to room temperature. 25 microliters/well of the mixed Nano-Glo reagent were dispensed into assay wells and pulse spun to settle contents and the plate was sealed with film. The plates were incubated at room temperature for 1 hour before detecting luminescence on an EnVision® plate reader.

Usually IC50 stands for the point on the concentration scale where inhibition reaches its midpoint. `O=C(COc1ccc(F)cc1)NC12CC(N3CCC(Oc4ccc(Cl)cc4)C3)(C1)C2` (single isomer, unassigned) [Example 6e, N-(3-(3-(4-chlorophenoxy)pyrrolidin-1-yl)bicyclo[1.1.1]pentan-1-yl)-2-(4-fluorophenoxy)acetamide]: the IC50 is 20 nM.

Take `O=C(COc1ccc(F)c(Cl)c1)NC12CC(N3CCN(c4ccc(Cl)cc4)C3=O)(C1)C2` [Example 1o, 2-(3-chloro-4-fluorophenoxy)-N-(3-(3-(4-chlorophenyl)-2-oxoimidazolidin-1-yl)bicyclo[1.1.1]pentan-1-yl)acetamide]: the IC50 was found to be 10.3 nM.

In the case of `O=C(COc1ccc(Cl)c(C(F)(F)F)c1)NC12CC(N3CCN(c4ccc(Cl)cc4)C3=O)(C1)C2` [Example 1l, 2-(4-chloro-3-(trifluoromethyl)phenoxy)-N-(3-(3-(4-chlorophenyl)-2-oxoimidazolidin-1-yl)bicyclo[1.1.1]pentan-1-yl)acetamide], the IC50 was 1.6 nM.

As for `O=C(COc1ccc(Cl)cc1)NC12CC(NCCNc3ccc(Cl)cc3)(C1)C2` [Example XXI, 2-(4-chlorophenoxy)-N-(3-((2-((4-chlorophenyl)amino)ethyl)amino)bicyclo[1.1.1]pentan-1-yl)acetamide], the 50% inhibitory concentration (IC50) turned out to be 33 nM.

Take `COC(=O)CN(CCOc1ccc(Cl)cc1)C12CC(NC(=O)COc3ccc(Cl)cc3)(C1)C2` [Example XVI, methyl N-(3-(2-(4-chlorophenoxy)acetamido)bicyclo[1.1.1]pentan-1-yl)-N-(2-(4-chlorophenoxy)ethyl)glycinate]: the IC50 worked out at 13 nM.

On to `O=C(COc1ccc(Cl)c(F)c1)NC12CC(N3CCC(Oc4ccc(Cl)cc4)C3)(C1)C2` (single isomer, unassigned) [Example 6o, 2-(4-chloro-3-fluorophenoxy)-N-(3-(3-(4-chlorophenoxy)pyrrolidin-1-yl)bicyclo[1.1.1]pentan-1-yl)acetamide], for which the IC50 turned out to be 5.7 nM.

`O=C(COc1ccc(Cl)cc1)NC12CCC(NC(=O)COc3ccc(Cl)nc3)(CC1)CC2` [Example III, 2-(4-chlorophenoxy)-N-(4-(2-((6-chloropyridin-3-yl)oxy)acetamido)bicyclo[2.2.2]octan-1-yl)acetamide]: the IC50 turned out to be 8.89 nM.

Regarding `COc1ccc(N2CCN(C34CC(NC(=O)COc5ccc(Cl)cc5)(C3)C4)C2=O)cc1` [Example 1t, 2-(4-chlorophenoxy)-N-(3-(3-(4-methoxyphenyl)-2-oxoimidazolidin-1-yl)bicyclo[1.1.1]pentan-1-yl)acetamide], the IC50 came out at 51.7 nM.

As for `O=C(COc1ccc(Cl)cc1)NC12CC(N3CCC(Oc4ccc(Cl)cc4)CC3)(C1)C2` [Example 8a, 2-(4-chlorophenoxy)-N-(3-(4-(4-chlorophenoxy)piperidin-1-yl)bicyclo[1.1.1]pentan-1-yl)acetamide], the concentration for half-maximal inhibition (IC50) turned out to be 5.1 nM.

Turning to `O=C(COc1ccc(Cl)cn1)NC12CC(N3CCN(c4ccc(Cl)cc4)C3=O)(C1)C2` [Example 1k, N-(3-(3-(4-chlorophenyl)-2-oxoimidazolidin-1-yl)bicyclo[1.1.1]pentan-1-yl)-2-((5-chloropyridin-2-yl)oxy)acetamide], the IC50 worked out at 34 nM.

As for `Cc1ccc(OCC(=O)NC23CC(NC(=O)COc4ccc(Cl)cc4)(C2)C3)cn1` [Example IX, 2-(4-chlorophenoxy)-N-(3-(2-((6-methylpyridin-3-yl)oxy)acetamido)bicyclo[1.1.1]pentan-1-yl)acetamide], the IC50 is 300 nM.

For `O=C(COc1ccc(C(F)(F)F)cc1)NC12CC(N3CCC(Oc4ccc(Cl)cc4)C3)(C1)C2` (centres unmarked) [Example 6i, N-(3-(3-(4-chlorophenoxy)pyrrolidin-1-yl)bicyclo[1.1.1]pentan-1-yl)-2-(4-(trifluoromethyl)phenoxy)acetamide], the IC50 came out at 6.9 nM.

Consider `O=C(COc1ccc(Cl)cc1)NC12CC(NC(=O)c3ccc(Cl)cc3)(C1)C2` [Example XII, 4-chloro-N-(3-(2-(4-chlorophenoxy)acetamido)bicyclo[1.1.1]pentan-1-yl)benzamide], for which the IC50 was 25.2 nM.

Consider `O=C(COc1ccc(Cl)cc1)NC12CC(NC(=O)COc3ccc4c(c3)CCCO4)(C1)C2` [Example 4d, 2-(4-chlorophenoxy)-N-(3-(2-(chroman-6-yloxy)acetamido)bicyclo[1.1.1]pentan-1-yl)acetamide], for which the IC50 was 12.2 nM.

Regarding `O=C(COc1ccc(Cl)c(F)c1)NC12CC(N3CCC(Oc4ccc(Cl)cc4)C3)(C1)C2` (centres unmarked) [Example 6q, 2-(4-chloro-3-fluorophenoxy)-N-(3-(3-(4-chlorophenoxy)pyrrolidin-1-yl)bicyclo[1.1.1]pentan-1-yl)acetamide], the IC50 was 1.1 nM.

With `O=C(COc1ccc(Cl)cc1)NC12CC(N3CCC(Oc4ccc(Cl)c(F)c4)C3)(C1)C2` (single isomer, unassigned) [Example 6v, N-(3-(3-(4-chloro-3-fluorophenoxy)pyrrolidin-1-yl)bicyclo[1.1.1]pentan-1-yl)-2-(4-chlorophenoxy)acetamide], the IC50 stood at 9.9 nM.

In the case of `O=C(COc1ccc(Cl)cc1)NC12CC(N3CC(Oc4ccc(Cl)cc4)C3)(C1)C2` [Example 3b, 2-(4-chlorophenoxy)-N-(3-(3-(4-chlorophenoxy)azetidin-1-yl)bicyclo[1.1.1]pentan-1-yl)acetamide], the concentration for half-maximal inhibition (IC50) fell in the range of 3.6 to 13.6 nM.

Take `O=C(COc1ccc(Cl)cc1)NC12CC(N3CCC(Oc4ccc(Cl)cc4)C3)(C1)C2` (centres unmarked) [XXIV and 6a]: the 50% inhibitory concentration (IC50) is 7.3 nM.

Regarding `O=C(COc1ccc(Cl)cc1)NC12CC(NC3CN(c4ccc(Cl)cc4)C3)(C1)C2` [Example 3a, 2-(4-chlorophenoxy)-N-(3-((1-(4-chlorophenyl)azetidin-3-yl)amino)bicyclo[1.1.1]pentan-1-yl)acetamide], the IC50 lay in the range of 3.6 to 13.6 nM.

`O=C(COc1ccc(Cl)cc1)NC12CC(N3CCC(Oc4ccc(Cl)cc4)C3)(C1)C2` (stereo in doubt) [Example 6c, (R)-2-(4-chlorophenoxy)-N-(3-(3-(4-chlorophenoxy)pyrrolidin-1-yl)bicyclo[1.1.1]pentan-1-yl)acetamide]: the IC50 worked out at 6.7 nM.

Consider `O=C(COc1ccc(Cl)cc1)NC12CC(NC(=O)Cc3ccc(Cl)cc3)(C1)C2` [Example VI, 2-(4-chlorophenoxy)-N-(3-(2-(4-chlorophenyl)acetamido)bicyclo[1.1.1]pentan-1-yl)acetamide], for which the 50% inhibitory concentration (IC50) was 4.1 nM.

As to `O=C(COc1ccc(Cl)c(C(F)(F)F)c1)NC12CC(N3CCC(Oc4ccc(Cl)cc4)C3)(C1)C2` (centres unmarked) [Example 6k, 2-(4-chloro-3-(trifluoromethyl)phenoxy)-N-(3-(3-(4-chlorophenoxy)pyrrolidin-1-yl)bicyclo[1.1.1]pentan-1-yl)acetamide], the IC50 is 24.6 nM.

`O=C(COc1cccc(Cl)c1)NC12CC(N3CCN(c4ccc(Cl)cc4)C3=O)(C1)C2` [Example 1g, 2-(3-chlorophenoxy)-N-(3-(3-(4-chlorophenyl)-2-oxoimidazolidin-1-yl)bicyclo[1.1.1]pentan-1-yl)acetamide]: the half-maximal inhibitory concentration (IC50) came out at 17 nM.

In the case of `O=C(COc1ccc(Cl)c(F)c1)NC12CC(N3CCN(c4ccc(Cl)cc4)C3=O)(C1)C2` [Example 1m, 2-(4-chloro-3-fluorophenoxy)-N-(3-(3-(4-chlorophenyl)-2-oxoimidazolidin-1-yl)bicyclo[1.1.1]pentan-1-yl)acetamide], the IC50 stood at 0.6 nM.

As to `O=C(COc1ccc(Cl)cc1)NC12CC(N3CCN(c4ccc(C(F)(F)F)cc4)C3=O)(C1)C2` [Example 1r, 2-(4-chlorophenoxy)-N-(3-(2-oxo-3-(4-(trifluoromethyl)phenyl)imidazolidin-1-yl)bicyclo[1.1.1]pentan-1-yl)acetamide], the IC50 is 1.8 nM.

`O=C(COc1ccc(Cl)cc1)NC12CC(N3CCN(c4ccc(Cl)cc4F)C3=O)(C1)C2` [Example 1v, N-(3-(3-(4-chloro-2-fluorophenyl)-2-oxoimidazolidin-1-yl)bicyclo[1.1.1]pentan-1-yl)-2-(4-chlorophenoxy)acetamide]: the IC50 is 23.2 nM.
